In patent US20200129476A1, “PARP Inhibitor in Combination with a Glucocorticoid and/or Ascorbic Acid and/or a Protein Growth Factor for the Treatment of Impaired Wound Healing” (AKRIBES BIOMEDICAL GMBH, priority 2017, published 2020):
“Also recorded” adds a separate entry of the source.

What was measured:
Type in all cases: cell-based, human
IL-1α = experiment: Fibroblast-macrophage coculture with wound exudate: IL-1α; conditions: WE #78; veliparib 10 μM, talazoparib 0.1 μM
Experimental: CD14^+ monocytes, isolated from PBMC of healthy donors by magnetic bead separation were incubated either alone or in the presence of primary human dermal fibroblasts (CelINTec) or fibroblast-derived matrices (FDM). FDM had been generated from primary human dermal fibroblasts by a 3-week incubation with the growth supplements vitamin C or insulin and EGF (vitamin C: 2-phospho-L-ascorbic acid trisodium salt, 100 μg/ml; human EGF, 5 ng/ml; human insulin, 5 μg/ml). Alternatively, fibroblast monolayer cultures can be used as well. After 4 days to a week to allow for macrophage differentiation in the presence or absence of M-CSF (25 ng/ml), the cultures were stimulated overnight with graded concentrations of test compounds in the absence or presence of various dilutions of sterile-filtered WE. IFN-g (50 ng/ml), LPS (100 ng/ml) and IL-4 (25 ng/ml) or combinations thereof served as controls for M1 and M2 macrophage induction. For negative control samples, medium was added instead of specific stimuli. WE were added to the culture medium for overnight stimulation at dilutions ranging from 1:25 to 1:100.
Supernatants were harvested and frozen for cytokine determination by ELISA, and cells were harvested and subjected to FACS analysis, gating on the monocyte population. Geometric means or mean fluorescence intensities (MFI) were used to quantify surface marker expression. […]

IL-1ß = IL-1ß secretion by HDF in the presence of wound exudate (ELISA); conditions: FIG. 22; WE #43 and #78 used with veliparib
Experimental: (§1) Primary human dermal fibroblasts (HDF) were purchased from CELLnTEC, Bern. They were routinely grown in Dulbecco's modified Eagle's medium (DMEM) containing 10% FCS, 2 mM glutamine, and 100 U/ml penicillin/100 μg/ml streptomycin. Media, antibiotics, and glutamine were bought from Lonza. The cells were used at passage 5-15. Cells were trypsinized and seeded at 5000 cells/well in 200 μl into the inner wells of 96-well plates. The outer wells were loaded with sterile water. The cells were allowed to adhere overnight and then incubated for 72 hours at 37° C. under the following conditions: graded compound concentrations or 20 ng/ml PDGF-BB (Tonbo Biosciences) in the absence or presence of different dilutions of sterile-filtered WE in medium. For control samples, 200p1 medium was added instead of specific stimuli. Alternatively, the cells were seeded into 384-well plates at 2500 cells/well directly together with test compounds or growth factors and WE or medium in a total volume of […].
At the end of the 72-hour incubation period, supernatants were removed for the determination of IL-1ß, and the cells were fixed with 4% paraformaldehyde (Morphisto) for 15 minutes at room temperature and washed 3 times with PBS. A control plate was fixed after the overnight adherence of the cells (day 1) to determine the starting cell number.
IL-1ß levels were determined with a commercial ELISA kit. The amount of IL-1ß contained in the wound exudate added to the cells was subtracted from the total IL-ß in the supernatants in order to determine the cytokine secreted by the cells.

[1] = system: alpha-smooth muscle actin (α-SMA); experiment: Immunolocalization of alpha-smooth muscle actin in 2D fibroblast culture (myofibroblast differentiation)
Experimental: as §1, with “The cells were allowed to adhere overnight and then incubated for 72 hours at 37° C. under the following conditions: graded compound concentrations or 20 ng/ml PDGF-BB (Tonbo Biosciences) in the absence or presence of different dilutions of sterile-filtered WE in medium.” left out
After fixation with paraformaldehyde, the cells were incubated for 1 hour at room temperature with a monoclonal mouse-anti-human antibody against alpha-smooth muscle actin (α-SMA) from e-Bioscience, washed 3 times with PBS and developed with an Alexa Fluor-labelled donkey-anti-mouse IgG (Molecular Probes). The cells were washed 3 times with PBS and examined in a Zeiss ZEISS Observer.Z1 microscope, using the software AxioVision 48.

SMILES: C[C@]1(c2nc3c(C(N)=O)cccc3[nH]2)CCCN1 [veliparib, 2-((2R)-2-methylpyrrolidin-2-yl)-1H-benzimidazole-4-carboxamide]
- IL-1α induced by wound exudate (IL-1α): reduced
- IL-1ß secretion induced by wound exudate (IL-1ß): reducing IL-1ß secretion
- staining for α-SMA ([1]; absence of WE, TGF-ß 20 ng/ml, veliparib 10 μM): has no effect; also recorded: had no effect
- staining for α-SMA, veliparib in combination with TGF-ß ([1]; presence of WE #78, veliparib 10 μM + TGF-ß 20 ng/ml): more strongly stained cells than veliparib alone
